The values below come from article PMC10347545 (Journal of the American Chemical Society, 2023).

The structures appear in SMILES notation.

One data set concerns PPARγ-RXRα heterodimer. Put plainly: PPARγ-RXRα heterodimer formation assay. Format: biochemical.
Data set [1] deals with genes comprising a PPAR response element. Particulars: cited from earlier work.
The next data set has as its system FOXO3a. Description: FOXO3a Ser253 phosphorylation. Format: cell-based. The settings on record: 20 μM, 16 h.
For data set [2], the system named is human adipocyte-derived stem cells (ASC; ASC52telo, hTERT). Put plainly: Adipocyte-derived stem cell differentiation. Type of data set: cell-based.
Another data set deals with nuclear receptors. Description: Selectivity profiling in Gal4-hybrid reporter gene assays. Format: cell-based, human. Particulars: 100 μM. (In general: Reporter assays use an easily measured gene product as a stand-in for the process of interest.)
Data set [3] relates to human PPAR response element (PPRE). Put plainly: PPRE reporter assay in HepG2 cells. Format: cell-based.
Data set [4] deals with T1, PPARγ LBD (Homo sapiens, UniProt P37231).
T1 sequence (P37231 238-503 limits assumed): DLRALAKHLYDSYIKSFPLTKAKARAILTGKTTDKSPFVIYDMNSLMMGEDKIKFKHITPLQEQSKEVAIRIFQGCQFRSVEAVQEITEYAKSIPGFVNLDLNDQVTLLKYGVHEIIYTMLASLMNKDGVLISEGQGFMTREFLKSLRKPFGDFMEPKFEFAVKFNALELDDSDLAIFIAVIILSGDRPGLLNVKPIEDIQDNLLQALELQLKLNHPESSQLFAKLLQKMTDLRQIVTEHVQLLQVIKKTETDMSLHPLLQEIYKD
Type of data set: biochemical.

Data set [5] has as its target T1, PPARγ LBD. Put plainly: MS-based PPARγ ligand binding assay. The settings on record: 0.2–4 μM, absence and presence of 1 μM pioglitazone.
The subject of a further data set is HepG2 cells. Description: Differential gene expression. Format: cell-based. Particulars: 20 μM.
Another data set relates to FOXO. Description: FoxO response element. Type of data set: cell-based. Particulars: HepG2 cells, over time.
The test system of a further data set is COS7 cells. Put plainly: Toxicity assay. Type of data set: cell-based. The settings on record: up to 100 μM, 24 h.
The target in data set [6] is T1, PPARγ LBD. Format: binding.

Regarding `CCc1ccc(CCOc2ccc(CC3SC(=O)NC3=O)cc2)nc1` (centres unmarked) [pioglitazone, reference compound], the “PPARγ:RXR heterodimerization” value in the data set with PPARγ-RXRα heterodimer was “enhanced”. In addition, in [1], the “FOXO signaling-related gene expression” value is given as “no effect”.

Consider `O=C(O)CSc1nc(Cl)cc(Nc2cccc(OCCc3ccccc3)c2)n1` [compound 2], for which the “phosphorylation of FOXO3a at Ser253” value in the data set on FOXO3a is reported as “promoted phosphorylation”. The pioglitazone-induced adipogenesis entry in data set [2] was “diminished”. Also, the “adipogenesis (ASC differentiation)” value in data set [2] (50 μM) is “did not cause adipogenesis”. Also, in the data set with nuclear receptors, the “agonism / antagonism on nuclear receptors” value is “neither revealed agonism nor antagonistic effects”. For the same molecule, the “transcriptional activity via PPRE” value in data set [3] (alone) is given as “induced transcriptional activity”. For the same molecule, in [3] (with pioglitazone), the “pioglitazone-mediated PPRE activation” value is “enhanced pioglitazone-mediated PPRE activation”. Also, at PPARγ LBD [4], the CBP-1 recruitment entry is “displaced”, the DRIP2 recruitment entry is reported as “displaced”, the NCOR recruitment entry is given as “enhanced binding” and the NCoA6 recruitment entry is “weaker recruitment”. For the same molecule, at PPARγ LBD [4], the PGC-1α recruitment entry is “weaker recruitment” and the SMRT recruitment result is recorded as “enhanced binding”. Moreover, in the data set with PPARγ-RXRα heterodimer, the “PPARγ:RXR heterodimerization” value was “decreased heterodimer formation” and the “dimer stabilization by pioglitazone” value is listed as “abrogated”. Also, the “binding of 2 to the PPARγ LBD” value on PPARγ LBD [5] is recorded as “dose-dependent manner”. In the data set with HepG2 cells, the “canonical PPAR signaling (gene expression)” value was “no induction”. Also, the “number of protein coding genes with significantly altered expression” value with HepG2 cells (p-value <0.05, |log2(fold change)| > 1) was 1750. In addition, in the data set on FOXO, the “transcriptional activity of FOXO (FHRE activity)” value is listed as “diminished”. The “cytotoxic effects (apoptosis, necrosis)” value in the data set on COS7 cells was “no cytotoxic effects”. At PPARγ LBD [6], the “thermal stabilization of the PPARγ LBD” value is listed as “additive thermal stabilization”.

Take `CC1(C)CCC(C)(C)c2cc(C3(c4ccc(C(=O)O)cc4)OCCO3)ccc21` [SR11237, reference compound]: in the data set with PPARγ-RXRα heterodimer, the “PPARγ:RXR heterodimerization” value was “enhanced”.
